Where “and” joins values, the source holds several entries; their conditions need not be identical. Identical values can stand only once. Calls of active or inactive are those of the source.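 The calls were made as follows: active = compounds giving half or more protection of infected cells from virus-caused growth loss, again on retest; inactive = the rest.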 Where a SMILES comes first, the peptide text is derived from it. [ ]: non-standard residue; d: D form. The star is where a group is joined. NMeF = CN[CH](Cc1ccccc1)C(=O)O; NMeV = CN[CH](C(=O)O)C(C)C; Boc = CC(C)(C)OC(=O)*
Test system: CEM cells HIV-1 protection, formazan growth assay
Assay: NCI AIDS Antiviral Assay
Conditions: for IC50: measured here: growth of uninfected CEM cells
Method in brief: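 Protection of CEM cells against HIV-1 measured as cell growth via soluble formazan read-out, with five concentrations tested on both infected and uninfected cells; failure to protect may reflect toxicity.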

| SMILES | EC50 [µM] | IC50 | outcome |
| --- | --- | --- | --- |
| CC(C)C(NC(=O)OC(C)(C)C)C(=O)N(C)C(Cc1ccccc1)C(=O)N(C)C(C(=O)N(C)C(C(=O)O)C(C)C)C(C)C (centres undefined) (Boc-V[NMeF][NMeV][NMeV]-OH; configuration not given here) | > 200 | > 200 µM |  |
| CCOC(=O)C(=Cn1c(=S)[nH]c2ccc([N+](=O)[O-])cc21)C(=O)OCC | > 200 | 77.6 µM |  |
| CC(Oc1ccc(OCC2CCCCC2)cc1)C(N)=O (centres undefined) | > 36.3 | 15.1 µM |  |
| c1ccc(CN(Cc2ccccn2)Cn2cccn2)nc1 |  |  | inactive |
| COc1cc(-c2cc(=O)c3c(OC)c(OC)c(OC)c(OC)c3o2)cc(OC)c1OC | > 200 | 28.2 µM |  |
| CC(=O)[C@@]12OC(C)(c3ccco3)O[C@@H]1C[C@H]1[C@@H]3CCC4=CC(=O)CC[C@]4(C)[C@H]3CC[C@@]12C (some centres undefined) | > 200 | 158 µM |  |
| O=C1C2CC3OC3CC2C(=O)N1CN1C(=O)C2CC3OC3CC2C1=O (centres undefined) | > 200 | > 200 µM |  |
| CC(C)=CCC[C@@H](C)[C@H]1CC[C@@]2(C)[C@@H]3CC[C@H]4C(C)(C)[C@@H](O)CC[C@@]45C[C@@]35CC[C@]12C | > 200 | 126 µM |  |
| COc1cc(/C=C2\Cc3ccccc3C2=O)cc(OC)c1OC | > 23.4 | > 23.4 µM |  |
| CC(C(=O)O)/C(=C\c1ccc2c(c1)OCO2)C(=O)O (centres undefined) |  |  | inactive |
| O=S(=O)(F)c1cc(Cl)ccc1C[P+](c1ccccc1)(c1ccccc1)c1ccccc1 | > 200 | 64.6 µM |  |
| Clc1ccc(COC(Cn2ccnc2)c2ccc(Cl)cc2Cl)c(Cl)c1 (centres undefined) | > 200 | 14.1 µM |  |
| COc1ccc(/C(=N\NC(=O)NN)C(c2ccc(OC)cc2)C2(O)C(=O)Nc3c(Cl)cc(Cl)cc32)cc1 (centres undefined) | > 9.55 | > 9.55 µM |  |
| OC(C/C(=N\N1CCCCC1)c1cccs1)(C(F)(F)F)C(F)(F)F | > 200 | 145 µM |  |
| CCNC(=O)Sc1ccccc1C(=O)NCCC(N)=O | 1.1 | 102 µM |  |
| O=C(O)c1cc(O)ccc1O | > 200 | > 200 µM |  |
| CC1(C)CC(=O)C2=C(C1)OC(N)=C(c1nc(-c3ccccc3)cs1)C2c1ccc(Br)cc1 (centres undefined) | > 200 | 22.9 µM |  |
| C[N+](C)(C)C1CC([N+](C)(C)C)C2c3ccccc3C21 (centres undefined) |  |  | inactive |
| Cc1ccc(OC2CC(n3cnc4c(=O)[nH]c(Br)nc43)OC2Oc2ccc(C)cc2)cc1 (centres undefined) | > 200 | 25.1 µM |  |
| Cc1cc(S(=O)(=O)Nc2nc(N)n(-c3ccccn3)n2)c(S)cc1Cl | 115 | > 200 µM |  |
| CCOC(=O)/C=C\c1c(Cl)n(-c2ccccc2)c(=O)n(-c2ccccc2)c1=O | > 200 | 31.6 µM |  |

| SMILES | EC50 [µM] | IC50 | outcome |
| --- | --- | --- | --- |
| O=C(O)c1ccc2c(c1)S(=O)(=O)NC2=O | > 1100 | > 1100 µM |  |
| CN(C)C(c1ccccc1)C1COC2Cc3ccccc3C1O2 (centres undefined) | > 200 | > 200 µM and 151 µM |  |
| Cc1c(C2CCSc3ccccc3N2)sc2ccccc12 (centres undefined) | > 200 | 148 µM |  |
| Nn1c(CCCCCCCCc2nnc(COc3ccc(Cl)cc3Cl)n2N)nnc1COc1ccc(Cl)cc1Cl | > 200 | 42.7 µM |  |
| CCOC(=O)C1=C(C)NC2=C(C(=O)N(c3ccccc3)C2c2ccccc2)C1c1ccccc1 (centres undefined) | > 41.7 | > 41.7 µM |  |
| Cc1ccc(S(=O)(=O)N2CCN(S(=O)(=O)c3ccc(C)cc3)Cc3ccccc3C2)cc1 | > 200 | > 200 µM |  |
| N#CC1(C#N)C(C#N)(C#N)C12CCCCC2Cl (centres undefined) | > 20 | > 20 µM |  |
| CC[C@]1(Cc2ccc(OC)c(OC)c2)C=[N+]([O-])O[C@H](OC2CCCCC2c2ccccc2)[C@@H]1OC(C)=O (some centres undefined) | > 200 | 30.2 µM |  |
| CN(C)CCNCc1ccc(-c2cccc(-c3ccc(CNCCN(C)C)cc3)n2)cc1 | > 204 | 2.45 µM |  |
| Cc1ccc(/C=C2\NC(=S)NC2=O)cc1 | > 200 | > 200 µM |  |
| N/N=C1\C(=O)N(Cc2ccccc2)C(=O)C1C(=O)NCc1ccccc1 (centres undefined) | > 7.76 | > 7.76 µM |  |
| Nn1c(N=Nc2c(O)[nH]c3ccccc23)n[nH]c1=S | > 33.9 | > 33.9 µM |  |
| COc1cc2c(cc1O)C(CSC)Cc1cc(OC)c(OC)cc1N(C)CCC2 (centres undefined) | > 200 | 38.9 µM |  |
| Cc1cc2c(c(C=NCc3ccccc3)c1)OC1(C=C2)Oc2ccccc2C(=O)N1C (centres undefined) | > 200 | 52.5 µM |  |
| CC(=O)OCC1OC(n2c(C)c(C(C)=O)c(-c3cccc4ccccc34)c(C#N)c2=S)C(OC(C)=O)C(OC(C)=O)C1OC(C)=O (centres undefined) | > 200 | 112 µM |  |
| CC(=O)NC1=NC(=O)/C(=C/c2ccc(Cl)cc2Cl)N1C |  |  | inactive |
| O=C1CC2(CCNCC2)C(=O)N1N1CCCC1 | > 200 | > 200 µM |  |
| C/C1=C/C(O)C/C(C)=C\C(O)C(=O)/C=C/C2C(CC1)C2(C)C (centres undefined) | > 200 | > 200 µM |  |
| CCC(=O)c1ccc2c(c1)N(CCCN1CCN(CCO)CC1)c1ccccc1S2 | > 200 | 9.33 µM |  |
| CC(=O)Oc1c(C)cc(-c2cc(C)c(OC(C)=O)c(C)c2)cc1C | > 200 | 55 µM |  |
| CC12SC(C)(c3c[se]cc31)C1C(=O)N(c3ccccc3)C(=O)C12 (centres undefined) |  |  | inactive |

| SMILES | EC50 [µM] | IC50 | outcome |
| --- | --- | --- | --- |
| COc1cc2ccc1NC(=O)N1CCN(CC1)C(=O)Nc1ccc(cc1OC)-c1ccc(c(OC)c1)NC(=O)N1CCN(CC1)C(=O)Nc1ccc-2cc1OC | > 0.933 | > 0.933 µM |  |
| O=C(c1cccs1)N(C(=S)N1CCN(c2ccccn2)CC1)C1CCCCC1 | > 12.6 | 12.3 µM |  |
| CC(=O)N1N=C(c2c(O)ccc3ccccc23)CC1c1ccc(Cl)cc1 (centres undefined) | > 200 | 25.1 µM |  |
| Cc1c(N)c2ccccc2c(=O)n1C | > 1120 | 302 µM |  |
| COc1ccc(C2CC(=O)CC(c3ccc(OC)cc3)C23C(=O)CCCC3=O)cc1 (centres undefined) | > 200 | > 200 µM |  |
| O=C1c2cc3c(cc2CC12Cc1cc4c(cc1C2=O)CCC4)CCCC3 (centres undefined) | > 200 | > 200 µM |  |
| Cc1cc(NS(=O)(=O)c2ccc(NC(=O)c3cccc4c(NNc5ccc(S(=O)(=O)N=C(N)N)cc5)c5ccccc5nc34)cc2)no1 | > 158 | 63.1 µM |  |
| CN(C)Cc1cc(C(=O)/C=C/c2ccc(F)cc2)cc(CN(C)C)c1O | > 200 | 19.1 µM |  |
| O=C1OC(c2ccccc2)(c2ccccc2)C(=O)OC1(c1ccccc1)c1ccccc1 | > 200 | 148 µM |  |
| O=c1ccn2n1Cc1ccccc1C2 | > 200 | > 200 µM |  |
| O=C(CSc1nc2ccccc2c(=O)n1-c1ccccc1)N=Nc1c(O)[nH]c2ccc(Br)cc12 | 61.7 | 85.1 µM |  |
| Cn1c(=O)c2[nH]cnc2n(CC(N)=O)c1=O | > 562 | > 562 µM |  |
| Cc1ccc(C2=C/C(=C/c3ccc(N(CCC#N)CCC#N)cc3)C(=O)O2)cc1 | > 200 | > 200 µM |  |
| CC(=O)Oc1cccc2c(/C=N/NC(N)=S)ncc(C)c12 | > 200 | 1.23 µM |  |
| COc1cc(C)c(Cc2cnc(N)nc2N)cc1OC | > 200 | > 200 µM |  |
| CO[C@H]1/C=C/O[C@@]2(C)Oc3c(C)c(O)c4c(O)c(c(/C=N/N5C(C)CN(Cc6ccc(C#N)cc6)CC5C)c(O)c4c3C2=O)NC(=O)/C(C)=C\C=C\[C@H](C)[C@H](O)[C@@H](C)[C@@H](O)[C@@H](C)[C@H](OC(C)=O)[C@@H]1C (some centres undefined) | > 200 | 9.12 µM |  |
| O=S(=O)(/N=S(/Nc1ccccc1)C(F)(F)Cl)c1ccccc1 (centres undefined) | > 200 | > 200 µM |  |
| S=C(N/N=C/c1cccc2ccccc12)Nc1c(Cl)cccc1Cl | > 200 | 102 µM |  |
| CCOc1ccccc1-n1c(-c2ccc([N+](=O)[O-])cc2)csc1=NC(=O)c1cccc([N+](=O)[O-])c1 | > 200 | 186 µM |  |
| CCOC(=O)c1nnc2sc(-c3ccccc3)nn12 | 58.9 | 191 µM |  |
| O=C1OCCC12CN(Cc1ccccc1)N=N2 (centres undefined) | > 200 | > 200 µM |  |

| SMILES | EC50 [µM] | IC50 | outcome |
| --- | --- | --- | --- |
| Cc1c2ccccc2nc(CS(=O)(=O)CCO)[n+]1[O-] | > 200 | > 200 µM |  |
| Oc1ccccc1-c1n[nH]c(=S)n1/N=C/c1ccc(-c2ccc(Br)cc2)o1 | > 42.7 | > 42.7 µM |  |
| O=C1C=C(C2=C(C3=CC(=O)c4ccccc4C3=O)C(=O)c3ccccc3C2=O)C(=O)c2ccccc21 | > 100 | 1.38 µM |  |
| CCOc1ccc(NC(=O)C2=C(C)NC(C)=C(C(=O)Nc3ccc(OCC)cc3)C2c2ccc(O)c(OC)c2)cc1 | > 17 | > 17 µM |  |
| COc1ccc([B-]23OCC[N+]2(CNC(=O)C2=C(O)C4(O)C(=O)C5=C(O)c6c(O)cccc6C(C)(O)C5CC4C(N(C)C)C2=O)CCO3)cc1 (centres undefined) | > 100 | 47.9 µM |  |
| N#CC(C(=O)C(=O)Nc1c(Cl)cccc1Cl)c1ccccc1 (centres undefined) |  |  | inactive |
| COc1ccc(-c2nc(-c3cnccn3)n(C3OC(CO)C(O)C(O)C3O)n2)cc1 (centres undefined) | > 200 | > 200 µM |  |
| N=C1N(c2ccccc2)C(N)(N)SSC(N)(N)N1c1ccccc1 | > 141 | 17.4 µM |  |
| O=C(Nc1ccccc1)c1cc(C(=O)Nc2ccccc2)[nH]n1 |  |  | inactive |
| Nc1c2cc3ccc2nc2ccc(cc12)OCCOCCOCCOCCOCCOCCO3 | > 200 | > 200 µM |  |
| Cc1[nH]c2ccccc2c1C1=CC(=O)N(c2ccccc2)C1=O | > 200 | 8.71 µM |  |
| C(/Cc1ccc2c(c1)OCO2)=N\NC1=NCCCCN1 | > 200 | 105 µM |  |
| CCOC(=O)c1ccc(N=C2S/C(=C\C(=S)Nc3ccccc3)N(c3ccccc3)C2=Nc2ccc(C(=O)OCC)cc2)cc1 | > 200 | > 200 µM |  |
| COC(=O)c1cc(C(=O)c2cc(C)c(OC)c(C(=O)OC)c2)cc(C)c1OC | > 200 | 66.1 µM |  |
| NNc1cn[nH]c(=O)c1Cl | > 200 | > 200 µM |  |
| CC(C)(C)N=C(NO)c1ccccc1 |  |  | inactive |
| N#CCCN(CCNc1ccccc1)C(=O)Nc1ccc(NC(=O)N(CCC#N)CCNc2ccccc2)cc1 | > 200 | > 200 µM |  |
| COc1cc2c3c(c1)[nH]c(=S)n3C(=O)C(c1ccccc1)S2 (centres undefined) | > 200 | 40.7 µM |  |

Reference: PubChem BioAssay AID179 (DTP/NCI, 2004)
